Data: US9764059B2, “Chlorhexidine gluconate containing solvent adhesive” (Avery Dennison Corporation, priority 2011, dated 2017)

Tests used:
Solubility = assay type: physicochemical
[1] = cited from earlier work

| Structure (SMILES) | solubility in water (Solubility) | solubility in solvents [1] |
| --- | --- | --- |
| N=C(NCCCCCCNC(=N)NC(=N)Nc1ccc(Cl)cc1)NC(=N)Nc1ccc(Cl)cc1 [Chlorhexidine base] | low solubility in water |  |
| N=C(NCCCCCCNC(=N)NC(=N)Nc1ccc(Cl)cc1)NC(=N)Nc1ccc(Cl)cc1.O=C(O)[C@H](O)[C@@H](O)[C@H](O)[C@H](O)CO.O=C(O)[C@H](O)[C@@H](O)[C@H](O)[C@H](O)CO [chlorhexidine gluconate] |  | only soluble in methanol and acetone |
